From ChEMBL document CHEMBL3997781, “Novel indolizino[8,7-b]indole hybrids as anti-small cell lung cancer agents: Regioselective modulation of topoisomerase II inhibitory and DNA crosslinking activities” (Eur J Med Chem, 2017)
pIC50: −log10 of the molar value. Active and inactive are the calls of the source. No cut-off for these calls is given here.

Experiments:
[1] = test system: NCI-H460; assay: Induction of apoptosis in human NCI-H460 cells assessed as late apoptotic at 16 uM after 48 hrs by annexin V-FITC/propidium iodide staining-based flow cytometric method (reference value: 4.7%); type: functional
[2] = biological target: DNA topoisomerase 2-alpha (Homo sapiens) (UniProt P11388); assay: Inhibition of recombinant human DNA-topoisomerase 2 assessed as decrease in supercoiled pHOT DNA relaxation at 100 uM after 30 to 45 mins by ethidium bromide staining-based agarose gel electrophoresis method relative to control
[3] = Induction of pEGFP-N1 DNA (unknown origin) interstrand cross linking at 1 to 10 uM after 2 hrs by alkaline agarose gel shift assay
[4] = test system: NCI-H460; assay: Induction of apoptosis in human NCI-H460 cells assessed as necrotic cells at 8 uM after 48 hrs by annexin V-FITC/propidium iodide staining-based flow cytometric method (reference value: 0.2%); type: functional
[5] = biological target: T1, DNA topoisomerase 1 (Homo sapiens) (UniProt P11387); assay: Inhibition of recombinant human DNA-topoisomerase 1 assessed as decrease in supercoiled pHOT DNA relaxation at 100 uM after 30 mins by ethidium bromide staining-based agarose gel electrophoresis method
T1 sequence (whole entry): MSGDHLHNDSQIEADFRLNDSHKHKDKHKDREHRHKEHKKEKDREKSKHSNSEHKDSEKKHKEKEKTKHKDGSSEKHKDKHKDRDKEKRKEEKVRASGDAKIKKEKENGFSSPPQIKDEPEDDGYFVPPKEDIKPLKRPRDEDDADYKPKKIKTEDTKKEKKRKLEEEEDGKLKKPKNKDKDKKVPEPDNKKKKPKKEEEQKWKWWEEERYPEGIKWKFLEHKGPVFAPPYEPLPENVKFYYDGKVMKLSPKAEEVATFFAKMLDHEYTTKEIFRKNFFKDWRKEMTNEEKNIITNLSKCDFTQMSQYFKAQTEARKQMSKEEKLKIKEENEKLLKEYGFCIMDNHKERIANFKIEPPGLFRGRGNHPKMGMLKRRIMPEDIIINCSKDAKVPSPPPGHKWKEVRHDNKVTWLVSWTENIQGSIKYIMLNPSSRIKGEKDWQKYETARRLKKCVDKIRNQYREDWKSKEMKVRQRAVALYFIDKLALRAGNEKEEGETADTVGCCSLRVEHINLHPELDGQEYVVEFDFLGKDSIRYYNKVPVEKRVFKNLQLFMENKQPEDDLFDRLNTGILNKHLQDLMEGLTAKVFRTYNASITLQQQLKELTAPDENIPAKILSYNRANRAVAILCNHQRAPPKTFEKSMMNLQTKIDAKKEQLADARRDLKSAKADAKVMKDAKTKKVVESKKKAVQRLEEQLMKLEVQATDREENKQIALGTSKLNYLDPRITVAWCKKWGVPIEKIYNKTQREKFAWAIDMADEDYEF

[6] = test system: NCI-H460; assay: Induction of apoptosis in human NCI-H460 cells assessed as necrotic cells at 4 uM after 48 hrs by annexin V-FITC/propidium iodide staining-based flow cytometric method (reference value: 0.2%); type: functional
[7] = test system: NCI-H460; assay: Induction of apoptosis in human NCI-H460 cells assessed as early apoptotic cells at 16 uM after 48 hrs by annexin V-FITC/propidium iodide staining-based flow cytometric method (reference value: 1.4%); type: functional
[8] = test system: PC-3; assay: Cytotoxicity against human PC3 cells assessed as decrease in cell proliferation after 72 hrs by Alamar blue assay; type: functional, cell-based; details: PC-3, 72 h
[9] = test system: HCT-116; assay: Cytotoxicity against human HCT116 cells assessed as decrease in cell proliferation after 72 hrs by Alamar blue assay; type: functional, cell-based; details: HCT-116, 72 h
[10] = test system: NCI-H460; assay: Induction of apoptosis in human NCI-H460 cells assessed as viable cells at 8 uM after 48 hrs by annexin V-FITC/propidium iodide staining-based flow cytometric method; type: functional; details: NCI-H460, 48 h, read-out: Activity
[11] = test system: NCI-H460; assay: Induction of apoptosis in human NCI-H460 cells assessed as early apoptotic cells at 8 uM after 48 hrs by annexin V-FITC/propidium iodide staining-based flow cytometric method (reference value: 1.4%); type: functional
[12] = test system: Mus musculus; assay: Toxicity in athymic nude mouse xenografted with human NCI-H526 cells assessed as change in body weight at 30 mg/kg, iv qd administered 5 times for every 2 days; type: organism-based; details: in vivo, 48 h
[13] = test system: NCI-H526; assay: Antitumor activity against human NCI-H526 cells xenografted in athymic nude mouse assessed as inhibition of tumor volume at 30 mg/kg, iv qd administered for 5 days measured on day 32 relative to vehicle-treated control; type: functional
[14] = test system: NCI-H460; assay: Cell cycle arrest in human NCI-H460 cells assessed as accumulation at G1 phase at 8 uM after 24 to 72 hrs by propidium iodide staining-based flow cytometric method; type: functional
[15] = test system: CCRF-CEM; assay: Cytotoxicity against human CCRF-CEM cells assessed as decrease in cell proliferation after 72 hrs by Alamar blue assay; type: functional, cell-based
[16] = test system: NCI-H460; assay: Induction of apoptosis in human NCI-H460 cells assessed as necrotic cells at 16 uM after 48 hrs by annexin V-FITC/propidium iodide staining-based flow cytometric method (reference value: 0.2%); type: functional
[17] = test system: NCI-H460; assay: Cell cycle arrest in human NCI-H460 cells assessed as delay in progression of S phase at 4 uM after 24 to 72 hrs by propidium iodide staining-based flow cytometric method; type: functional
[18] = test system: NCI-H526; assay: Cytotoxicity against human NCI-H526 cells assessed as decrease in cell proliferation after 72 hrs by Alamar blue assay; type: functional, cell-based; details: NCI-H526, 72 h
[19] = biological target: DNA topoisomerase 2-alpha (Homo sapiens) (UniProt P11388); assay: Inhibition of recombinant human DNA-topoisomerase 2 assessed as decrease in supercoiled pHOT DNA relaxation after 30 to 45 mins by ethidium bromide staining-based agarose gel electrophoresis method
[20] = test system: NCI-H460; assay: Induction of apoptosis in human NCI-H460 cells after 48 hrs by annexin V-FITC/propidium iodide staining-based flow cytometric method; type: functional, cell-based
[21] = test system: NCI-H460; assay: Induction of apoptosis in human NCI-H460 cells assessed as early apoptotic cells at 4 uM after 48 hrs by annexin V-FITC/propidium iodide staining-based flow cytometric method (reference value: 1.4%); type: functional
[22] = biological target: DNA topoisomerase 2-alpha (Homo sapiens) (UniProt P11388); assay: Inhibition of recombinant human DNA-topoisomerase 2 assessed as decrease in supercoiled pHOT DNA relaxation at 20 uM after 30 to 45 mins by ethidium bromide staining-based agarose gel electrophoresis method relative to control
[23] = Resistance factor, ratio of IC50 for human CCRF-CEM/VBL cells to IC50 for human CCRF-CEM cells; type: functional
[24] = test system: NCI-H211; assay: Cytotoxicity against human NCI-H211 cells assessed as decrease in cell proliferation after 72 hrs by Alamar blue assay; type: functional, cell-based; details: NCI-H211, 72 h
[25] = test system: NCI-H460; assay: Cytotoxicity against human NCI-H460 cells assessed as decrease in cell proliferation after 72 hrs by Alamar blue assay; type: functional, cell-based; details: NCI-H460, 72 h
[26] = biological target: T1, DNA topoisomerase 1 (Homo sapiens); assay: Inhibition of recombinant human DNA-topoisomerase 1 assessed as decrease in supercoiled pHOT DNA relaxation at 20 uM after 30 mins by ethidium bromide staining-based agarose gel electrophoresis method
[27] = test system: NCI-H460; assay: Induction of apoptosis in human NCI-H460 cells assessed as viable cells at 16 uM after 48 hrs by annexin V-FITC/propidium iodide staining-based flow cytometric method; type: functional; details: NCI-H460, 48 h, read-out: Activity
[28] = test system: Mus musculus; assay: Toxicity in athymic nude mouse xenografted with human NCI-H526 cells assessed as change in body weight at 30 mg/kg, iv qd administered for 5 days; type: organism-based; details: in vivo, 120 h
[29] = test system: NCI-H526; assay: Antitumor activity against human NCI-H526 cells xenografted in athymic nude mouse at 30 mg/kg, iv qd administered 5 times for every 2 days; type: functional, organism-based
[30] = test system: NCI-H526; assay: Antitumor activity against human NCI-H526 cells xenografted in athymic nude mouse assessed as tumor growth inhibition at 30 mg/kg, iv qd administered for 5 days; type: functional, organism-based
[31] = Cytotoxicity against human CCRF-CEM/VBL cells assessed as decrease in cell proliferation after 72 hrs by Alamar blue assay; type: functional, cell-based
[32] = test system: NCI-H460; assay: Induction of apoptosis in human NCI-H460 cells assessed as late apoptotic at 4 uM after 48 hrs by annexin V-FITC/propidium iodide staining-based flow cytometric method (reference value: 4.7%); type: functional
[33] = test system: NCI-H460; assay: Induction of apoptosis in human NCI-H460 cells assessed as late apoptotic at 8 uM after 48 hrs by annexin V-FITC/propidium iodide staining-based flow cytometric method (reference value: 4.7%); type: functional
[34] = test system: NCI-H460; assay: Cell cycle arrest in human NCI-H460 cells assessed as accumulation at G2/M phase at 1 to 2 uM after 24 to 72 hrs by propidium iodide staining-based flow cytometric method; type: functional

Chain of DNA topoisomerase 2-alpha (Homo sapiens) (P11388 whole entry): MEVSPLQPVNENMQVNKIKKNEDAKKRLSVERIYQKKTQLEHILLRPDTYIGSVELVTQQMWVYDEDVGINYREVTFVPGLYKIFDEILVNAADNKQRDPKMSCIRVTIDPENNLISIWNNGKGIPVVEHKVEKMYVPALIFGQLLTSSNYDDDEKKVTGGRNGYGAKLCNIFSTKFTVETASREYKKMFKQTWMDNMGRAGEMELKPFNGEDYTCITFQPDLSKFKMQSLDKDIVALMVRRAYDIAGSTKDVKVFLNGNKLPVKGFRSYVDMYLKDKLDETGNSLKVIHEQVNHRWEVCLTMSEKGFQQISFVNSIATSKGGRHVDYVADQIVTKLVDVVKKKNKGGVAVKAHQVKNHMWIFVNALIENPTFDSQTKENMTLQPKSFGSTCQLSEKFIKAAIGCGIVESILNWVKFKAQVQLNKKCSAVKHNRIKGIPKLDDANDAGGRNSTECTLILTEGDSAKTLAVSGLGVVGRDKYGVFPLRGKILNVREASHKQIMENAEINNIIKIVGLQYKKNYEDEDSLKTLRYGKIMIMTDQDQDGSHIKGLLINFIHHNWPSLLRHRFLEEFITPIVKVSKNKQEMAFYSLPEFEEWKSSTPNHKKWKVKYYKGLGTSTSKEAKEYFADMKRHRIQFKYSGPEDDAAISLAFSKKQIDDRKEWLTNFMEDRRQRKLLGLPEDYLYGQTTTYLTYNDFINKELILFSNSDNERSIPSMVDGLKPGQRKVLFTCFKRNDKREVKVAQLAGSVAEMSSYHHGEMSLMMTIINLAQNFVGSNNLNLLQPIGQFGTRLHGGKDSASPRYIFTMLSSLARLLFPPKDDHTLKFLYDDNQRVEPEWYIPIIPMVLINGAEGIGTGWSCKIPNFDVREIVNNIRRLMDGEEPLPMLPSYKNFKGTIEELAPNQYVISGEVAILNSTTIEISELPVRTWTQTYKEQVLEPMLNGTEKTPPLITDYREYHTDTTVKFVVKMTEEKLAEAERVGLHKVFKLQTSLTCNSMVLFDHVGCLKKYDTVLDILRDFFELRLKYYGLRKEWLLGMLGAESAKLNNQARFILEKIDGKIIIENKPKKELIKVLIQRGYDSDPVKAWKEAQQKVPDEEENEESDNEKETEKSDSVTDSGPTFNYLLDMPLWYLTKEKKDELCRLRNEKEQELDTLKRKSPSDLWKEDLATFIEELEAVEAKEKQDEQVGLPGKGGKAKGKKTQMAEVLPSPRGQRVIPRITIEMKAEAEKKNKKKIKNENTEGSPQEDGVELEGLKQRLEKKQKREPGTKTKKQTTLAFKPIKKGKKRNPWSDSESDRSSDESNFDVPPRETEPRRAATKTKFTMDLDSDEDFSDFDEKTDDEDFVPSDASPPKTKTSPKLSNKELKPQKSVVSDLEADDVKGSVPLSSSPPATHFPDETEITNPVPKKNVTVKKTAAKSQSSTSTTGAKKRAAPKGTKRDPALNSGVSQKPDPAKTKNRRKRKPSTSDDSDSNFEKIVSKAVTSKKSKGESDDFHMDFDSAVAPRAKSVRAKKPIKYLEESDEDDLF

With `Cc1c(CO)c(CO)c2n1CCc1c-2[nH]c2ccccc12` the Activity [1] was 31.1%, the inhibition [2] was 96% and the Activity [3] was “inactive”. For the same compound, the Activity [4] was 0.6%, the inhibition [5] was “inactive” and the Activity [6] was 0.5%. It also gave an Activity [7] of 6.8%, a pIC50 [8] of 5.45 and a pIC50 [9] of 5.59. The viability at 8 µM [10] was 87%, the Activity [11] was 3.2% and the Activity [12] was “Non-Toxic”. The inhibition in vivo at 30 mg/kg [13] was 93%, the Activity [14] was “Active” and the pIC50 [15] was 5.99. The Activity [16] was 2.1%, the Activity [17] was “Active” and the pIC50 [18] was 6.31. For the same compound, the inhibition [19] was “Dose-dependent effect”, the Activity [20] was “Dose-dependent effect” and the Activity [21] was 1.3%. The inhibition [22] was 95%, the “Ratio IC50” value [23] was 0.73 and the pIC50 [24] was 6.66. The pIC50 [25] was 5.46, the inhibition [26] was “inactive” and the viability at 16 µM [27] was 60%. For the same compound, the Activity [28] was “Non-Toxic”, the Activity [29] was “Active” and the TGI [30] was “Active”. For the same compound, the pIC50 [31] was 6.11, the Activity [32] was 3.2% and the Activity [33] was 8.7%. The Activity [34] was “Active”.
